Measurements: the CheMixHub viscosity set

Assay: xn = mol fraction of the nth substance listed

CCCC[N+](CCCC)(CCCC)CCCC.[Br-] + NCCO
101 kPa, x1 = 0.143
Conditions | viscosity [mPa·s]
298.15 K | 53.49
303.15 K | 40.7
308.15 K | 31.66
313.15 K | 25.12
318.15 K | 20.28
323.15 K | 16.63

NCCN1CCNCC1 + NCCO.O=CO
viscosity [mPa·s], 100 kPa
Conditions | x2 = 0.2317 | x2 = 0.3408 | x2 = 0.4457 | x2 = 0.5468 | x2 = 0.6441 | x2 = 0.7379 | x2 = 0.8283
298.15 K | 130.1 | 250.1 | 379.1 | 466.9 | 462.4 | 357.8 | 264.9
303.15 K | 80.27 | 188.7 | 266.6 | 322.5 | 323.3 | 259 | 196.6
308.15 K | – | 136.2 | 191.3 | 230.5 | 234.9 | 192 | 149.1
313.15 K | – | 102.4 | 141.7 | 170 | 173.6 | 146.6 | 115.8
318.15 K | – | 78.62 | 106.8 | 127.9 | 131.8 | 113.7 | 91.74
323.15 K | – | 61.55 | 83.63 | 98.95 | 102.1 | 89.85 | 74.36

CCCCO + O
Conditions | viscosity [mPa·s]
293.15 K, 100 kPa, x1 = 0.02 | 1.378
293.15 K, 100 kPa, x1 = 0.5485 | 3.301
293.15 K, 101 kPa, x1 = 0.005 | 1.077
293.15 K, 101 kPa, x1 = 0.01 | 1.155
293.15 K, 101 kPa, x1 = 0.015 | 1.232
298.15 K, 101 kPa, x1 = 0.005 | 0.947
298.15 K, 101 kPa, x1 = 0.01 | 1.003
298.15 K, 101 kPa, x1 = 0.015 | 1.058
298.15 K, 101 kPa, x1 = 0.69 | 2.598
298.15 K, 101 kPa, x2 = 0.0398 | 2.622
298.15 K, 101 kPa, x2 = 0.0784 | 2.618
298.15 K, 101 kPa, x2 = 0.1202 | 2.619
298.15 K, 101 kPa, x2 = 0.1424 | 2.62
298.15 K, 101 kPa, x2 = 0.163 | 2.626
298.15 K, 101 kPa, x2 = 0.1955 | 2.634
298.15 K, 101 kPa, x2 = 0.2265 | 2.647
298.15 K, 101 kPa, x2 = 0.2719 | 2.679
298.15 K, 101.3 kPa, x1 = 0.003 | 0.9421
298.15 K, 101.3 kPa, x1 = 0.006 | 0.994
298.15 K, 101.3 kPa, x1 = 0.009 | 1.047
298.15 K, 101.3 kPa, x1 = 0.012 | 1.1
298.15 K, 101.33 kPa, x1 = 0.0017 | 0.921
298.15 K, 101.33 kPa, x1 = 0.00297 | 0.941
298.15 K, 101.33 kPa, x1 = 0.00364 | 0.949
298.15 K, 101.33 kPa, x1 = 0.00491 | 0.97
298.15 K, 101.33 kPa, x1 = 0.00559 | 0.981
298.15 K, 101.33 kPa, x1 = 0.0081 | 1.021
298.15 K, 101.33 kPa, x1 = 0.00972 | 1.048
298.15 K, 101.33 kPa, x1 = 0.0124 | 1.096
298.15 K, 101.33 kPa, x1 = 0.0136 | 1.114
298.15 K, 101.33 kPa, x1 = 0.0151 | 1.141
298.15 K, 101.33 kPa, x1 = 0.0166 | 1.166
298.15 K, 101.33 kPa, x1 = 0.0179 | 1.185
303.15 K, 101 kPa, x1 = 0.005 | 0.842
303.15 K, 101 kPa, x1 = 0.01 | 0.883
303.15 K, 101 kPa, x1 = 0.015 | 0.93
303.15 K, 101.33 kPa, x1 = 0.013 | 0.968
303.15 K, 101.33 kPa, x2 = 0.095 | 2.236
303.15 K, 101.33 kPa, x2 = 0.2526 | 2.272
303.15 K, 101.33 kPa, x2 = 0.4385 | 2.42
308.15 K, 101 kPa, x1 = 0.005 | 0.758
308.15 K, 101 kPa, x1 = 0.01 | 0.794
308.15 K, 101 kPa, x1 = 0.015 | 0.841
308.15 K, 101 kPa, x2 = 0.0398 | 2.032
308.15 K, 101 kPa, x2 = 0.0784 | 2.022
308.15 K, 101 kPa, x2 = 0.1202 | 2.017
308.15 K, 101 kPa, x2 = 0.1424 | 2.016
308.15 K, 101 kPa, x2 = 0.163 | 2.017
308.15 K, 101 kPa, x2 = 0.1955 | 2.024
308.15 K, 101 kPa, x2 = 0.2265 | 2.027
313.15 K, 101 kPa, x1 = 0.005 | 0.682
313.15 K, 101 kPa, x1 = 0.01 | 0.712
313.15 K, 101 kPa, x1 = 0.015 | 0.746
318.15 K, 101 kPa, x1 = 0.005 | 0.62
318.15 K, 101 kPa, x1 = 0.01 | 0.638
318.15 K, 101 kPa, x1 = 0.015 | 0.662
318.15 K, 101 kPa, x2 = 0.0412 | 1.597
318.15 K, 101 kPa, x2 = 0.0733 | 1.588
318.15 K, 101 kPa, x2 = 0.1101 | 1.581
318.15 K, 101 kPa, x2 = 0.1458 | 1.576
318.15 K, 101 kPa, x2 = 0.1755 | 1.571
318.15 K, 101 kPa, x2 = 0.2129 | 1.578
323.15 K, 100 kPa, x1 = 0.02 | 0.668
323.15 K, 100 kPa, x1 = 0.5485 | 1.447
323.15 K, 101 kPa, x1 = 0.005 | 0.566
323.15 K, 101 kPa, x1 = 0.01 | 0.58
323.15 K, 101 kPa, x1 = 0.015 | 0.602
